The values below come from patent US20240287082A1, “NEW BENZODIAZEPINE DERIVATIVES AS GABA A GAMMA1 PAM” (Hoffmann-La Roche Inc., priority 2021, published 2024).

Like-named read-outs stand apart in the source and are kept apart here.

Assay [1] concerns the target human GABAA α5β2γ1 receptor (Homo sapiens (Human), UniProt P31644+Q8N1C3). In words: Radioligand binding assay, competition for [3H]RO7239181, γ1-containing GABAA subtype α5β2γ1. As for the experimental part:
The affinity of compounds at GABAA γ1 subunit-containing receptors was measured by competition for [^3H]RO7239181 (67.3 Ci/mmol; Roche) binding to membranes from HEK293F cells (ThermoFisher R^79007) expressing human (transiently transfected) receptors of composition α5β2γ1, α2β2γ1, α1β2γ1. For better protein expression of the α2 subunit-containing receptors, the 28 amino acid long signal peptide (Met1 to Ala28)of the human GABAA α2 subunit was substituted by the 31 amino acid long signal peptide (Met1 to Ser31) of human GABAA α5 subunit.
(§1) Harvested pellets from HEK293F cells expressing the different GABAA receptor subtypes were resuspended in Mannitol Buffer pH 7.2-7.4 (Mannitol 0.29M, Triethylamine 10 mM, Acetic acid 10 mM, EDTA 1 mM plus protease inhibitors (20 tablets Complete, Roche Diagnostics Cat. No. 05 056 489 001 per liter)), washed two times and then resuspended at 1:10 to 1:15 dilution in the same buffer. Cell disruption was performed by stirring the suspension in a Parr vessel #4637 at 435 psi for 15 minutes, and then the suspensions were centrifuged at 1000×g for 15 minutes at 4° C. (Beckman Avanti J-HC: rotor JS-4.2). The supernatant (S1) was transferred in a 21 Schott flask and the pellet (P1) was resuspended with Mannitol Buffer up to 175 ml. The resuspended pellet was transferred into a 250 ml Corning centrifugal beaker and centrifuged at 1500×g for 10 minutes at 4° C. (Beckman Avanti J-HC: rotor JS-4.2). The supernatant (S1) was then transferred in the 21 Schott flask and the pellet was discarded. The supernatants (S1) were centrifuged in 500 ml Beckman polypropylene centrifugal beaker at 15 000×g for 30 minutes at 4° C. (Beckman Avanti J-20 XP: rotor JLA-10.500). The pellet (P2) was resuspended with Mannitol Buffer 1:1 and frozen at −80° C. The supernatant (S2) was centrifuged in 100 ml Beckman polypropylene centrifugal tubes at 48000×g for 50 minutes at 4° C. (Beckman Avanti J-20 XP: rotor JA-18). The supernatant (S3) was discarded and the pellet (P3) was resuspended with 1:1 Mannitol Buffer. The P2 and P3 protein concentration was determined with the BIORAD Standard assay method with bovine serum albumin as standard and measured on the NANO-Drop 1000. The membrane suspension was aliquots (500 μl per tube) and stored at −80° C. until required.
(§2) Membrane homogenates were resuspended and polytronised (Polytron PT1200E Kinematica AG) in Potassium Phosphate 10 mM, KCl 100 mM binding buffer at pH 7.4 to a final assay concentration determined with a previous experiment.
Radioligand binding assays were carried out in a volume of 200 μL (96-well plates) which contained 100 μL of cell membranes, [3H]RO7239181 at a concentration of 1.5 nM (α5β2γ1) or 20-30 nM (α1β2γ1, α2β2γ1) and the test compound in the range of [0.3-1000]×10^−9 M. Nonspecific binding was defined by 10×10^−6 (α5β2γ1) and 30×10^−6 M RO7239181 and typically represented less than 5% (α5β2γ1) and less than 20% (α1β2γ1, α2β2γ1) of the total binding. Assays were incubated to equilibrium for 1 hour at 4° C. and then, membranes were filtered onto unifilter (96-well white microplate with bonded GF/C filters preincubated 20-50 minutes in 0.3% Polyethylenimine) with a Filtermate 196 harvester (Packard BioScience) and washed 4 times with cold Potassium Phosphate 10 mM pH 7.4, KCl 100 mM binding buffer. After anhydrousing, filter-retained radioactivity was detected by liquid scintillation counting. Ki values were calculated using Excel-Fit (Microsoft) and are the means of two determinations.

In assay [2] the target is human GABAA α1β2γ1 receptor (Homo sapiens (Human), UniProt P14867+Q8N1C3). Description: Radioligand binding assay, competition for [3H]RO7239181, γ1-containing GABAA subtype α1β2γ1. The conditions noted are these: membranes of HEK293F cells, [3H]RO7239181 20-30 nM, mean of two determinations. How it is done:
(§3) The affinity of compounds at GABAA γ1 subunit-containing receptors was measured by competition for [^3H]RO7239181 (67.3 Ci/mmol; Roche) binding to membranes from HEK293F cells (ThermoFisher R^79007) expressing human (transiently transfected) receptors of composition α5β2γ1, α2β2γ1, α1β2γ1.
as §1, §2
(§4) Assays were incubated to equilibrium for 1 hour at 4° C. and then, membranes were filtered onto unifilter (96-well white microplate with bonded GF/C filters preincubated 20-50 minutes in 0.3% Polyethylenimine) with a Filtermate 196 harvester (Packard BioScience) and washed 4 times with cold Potassium Phosphate 10 mM pH 7.4, KCl 100 mM binding buffer. After anhydrousing, filter-retained radioactivity was detected by liquid scintillation counting. Ki values were calculated using Excel-Fit (Microsoft) and are the means of two determinations.

Assay [3] concerns the target human GABAA α2β2γ1 receptor (Homo sapiens (Human), UniProt P47869+Q8N1C3). Description: Radioligand binding assay, competition for [3H]RO7239181, γ1-containing GABAA subtype α2β2γ1. The settings on record: for γ2/γ1 Selectivity Ratio: Ki α1β3γ2 (nM)/Ki α2β2γ1 (nM); for LogSel: Log[Ki α1β3γ2 (nM)/Ki α2β2γ1 (nM)]. As for the experimental part:
as §3, §1, §2, §4

The target in assay [4] is human GABAA α1β3γ2 receptor (Homo sapiens (Human), UniProt P14867+P18507). Description: Radioligand binding assay, competition for [3H]Flumazenil, γ2-containing GABAA subtype α1β3γ2. How it is done:
The affinity of compounds at GABAA γ2 subunit-containing receptors was measured by competition for [^3H]Flumazenil (81.1 Ci/mmol; Roche) binding to HEK293F cells expressing human (transiently transfected) receptors of composition α1β3γ2.
Harvested pellets from HEK293F cells expressing the different GABAA γ2 receptor subtypes were resuspended in Mannitol Buffer pH 7.2-7.4 and processed as described above for the cells expressing the GABAA γ1 subunit-containing receptors.
Assays were incubated to equilibrium for 1 hour at 4° C. and harvested onto GF/C uni-filters (Packard) by filtration using a Packard harvester and washing with ice-cold wash buffer (50 mM Tris; pH 7.5). After anhydrousing, filter-retained radioactivity was detected by liquid scintillation counting. Ki values were calculated using Excel-Fit (Microsoft) and are the means of two determinations.

For another assay, the target named is h-GABA-A α2β2γ1 (Homo sapiens (Human), UniProt P47869+Q8N1C3). In words: Two-electrode voltage clamp electrophysiology in Xenopus oocytes expressing GABAA receptors, modulation of GABA EC20 current. It counts as cell-based. The conditions noted are these: for Efficacy (GABA) %: % modulation of GABA EC20 = 100*(Fold increase−1), compound at 30-fold Ki α2β2γ1; for Fold increase h-GABA-A α2β2γ1 oocyte @ 30-fold Ki: Xenopus oocytes, GABA EC20, test compound at approx. 30-fold its Ki α2β2γ1. As for the experimental part: Xenopus laevis oocytes at maturation stages V-VI were used for the expression of cloned mRNA encoding GABAA receptor subunits. Oocytes ready for RNA micro-injection were bought from Ecocyte, Castrop-Rauxel, Germany and stored in modified Barth's medium (composition in mM: NaCl 88, KCl 1, NaHCO3 2.4, HEPES 10, MgSO4 0.82, CaNO3 0.33, CaCl2 0.33, pH=7.5) at 20° C. until the experiment.
Oocytes were plated in 96-well plates for microinjection using the Roboinject automated instrument (MultiChannelSystems, Reutlingen, Germany). Approximately 50 nL of an aqueous solution containing the RNA transcripts for the subunits of the desired GABAA receptor subtype was injected into each oocyte. […] Oocytes were kept in modified Barth's medium (composition in mM: NaCl 88, KCl 1, NaHCO3 […], HEPES 10, MgSO4 0.82, CaNO3 0.33, CaCl2 0.33, pH=7.5) at 20° C. until the experiment.
Electrophysiological experiments were performed using the Roboocyte instrument (MultiChannelSystems, Reutlingen, Germany) on days 3 to 5 after the micro-injection of mRNA. During the experiment the oocytes were constantly superfused by a solution containing (in mM) NaCl 90, KCl 1, HEPES 5, MgCl2 1, CaCl2 1 (pH 7.4). Oocytes were impaled by two glass microelectrodes (resistance: 0.5-0.8 MΩ) which were filled with a solution containing KCl 1M+K-acetate 1.5 M and voltage-clamped to −80 mV. The recordings were performed at room temperature using the Roboocyte two-electrode voltage clamp system (Multichannelsystem). After an initial equilibration period of 1.5 min GABA was added for 1.5 min at a concentration evoking approximately 20% of a maximal current response (EC20). After another rest interval of 2.5 min GABA was again added evoking a response of similar amplitude and shape. […] Current traces were recorded at a digitization rate of 10 Hz during and shortly before and after the GABA application.
Each compound and concentration was tested on at least 3 oocytes. Different oocytes were used for different compound concentrations.
For the analysis, the digitized current traces of the first and second GABA response were superimposed and, if necessary, rescaled to equal maximal amplitudes. The ratio between the two responses during the time interval of test compound application was calculated point by point. The extremum of the resulting “ratio trace” was taken as the efficacy (“Fold increase”) of the compound expressed as “% modulation of GABA EC20” (100*(Fold increase−1)).

[5] abbreviates: read-out: Ki h-GABAA α2β2γ1, Table 2, membranes of HEK293F cells, [3H]RO7239181.

In general, Ki refers to a dissociation constant, usually derived from enzyme kinetics or from competition with a known ligand. Regarding `C[C@@H]1N=C(c2c(F)cccc2F)c2c(ccc(C(F)(F)F)c2Cl)-n2cc(CO)c(=O)nc21` [Example 29, (5S)-8-chloro-7-(2,6-difluorophenyl)-2-(hydroxymethyl)-5-methyl-9-(trifluoromethyl)-5H-pyrimido[1,2-a][1,4]benzodiazepin-3-one], the Ki in assay [1] (membranes of HEK293F cells, [3H]RO7239181 1.5 nM, mean of two determinations, read-out: Ki h-GABAA α5β2γ1) was found to be 11.2 nM; in assay [2], 113 nM; in assay [3] (Table 2, membranes of HEK293F cells, [3H]RO7239181, read-out: Ki h-GABAA α2β2γ1), 44.6 nM; in assay [3] (membranes of HEK293F cells, [3H]RO7239181 20-30 nM, mean of two determinations, read-out: Ki h-GABAA α2β2γ1), 44.6 nM; in assay [4] (HEK293F cell membranes, [3H]Flumazenil 1 nM, mean of two determinations, read-out: Ki h-GABAA α1β3γ2), 13100 nM. Further, the “γ2/γ1 Selectivity Ratio” value in assay [3] was 292.6. In assay [3], the LogSel was 2.47.

Take `C[C@@H]1N=C(c2c(F)cccc2F)c2c(ccc(Br)c2Cl)-n2cc(Br)c(=O)nc21` [Example 16, (5S)-2,9-dibromo-8-chloro-7-(2,6-difluorophenyl)-5-methyl-5H-pyrimido[1,2-a][1,4]benzodiazepin-3-one]: at h-GABA-A α2β2γ1, the “Efficacy (GABA) %” value is reported as 71% and the “Fold increase h-GABA-A α2β2γ1 oocyte @ 30-fold Ki” value was determined as 1.71. The compound further returned a Ki in assay [1] of 1.6 nM. In assay [3], the Ki was determined as 8.3 nM, the “γ2/γ1 Selectivity Ratio” value worked out at 188.0 and the LogSel stood at 2.27. Besides, affinity in assay [4] was put at a Ki of 1570 nM.

Take `C[C@@H]1N=C(c2c(F)cccc2F)c2c(ccc(Cl)c2Br)-n2cc(Br)c(=O)nc21` [Example 23, (5S)-2,8-dibromo-9-chloro-7-(2,6-difluorophenyl)-5-methyl-5H-pyrimido[1,2-a][1,4]benzodiazepin-3-one]: the “Efficacy (GABA) %” value on h-GABA-A α2β2γ1 was 107%. Also, the “Fold increase h-GABA-A α2β2γ1 oocyte @ 30-fold Ki” value on h-GABA-A α2β2γ1 worked out at 2.07. In addition, the Ki in assay [1] stood at 6.8 nM; in assay [3] it was 74.1 nM; in assay [3] (setting [5]) it was 74.1 nM; in assay [4], 3000 nM. Also, in assay [3], the “γ2/γ1 Selectivity Ratio” value stood at 40.5. For the same compound, the LogSel in assay [3] came to 1.61.

Consider `O=c1ccn2c(n1)CN=C(c1c(F)cccc1F)c1c-2ccc(Br)c1Cl` [Example 12, 9-bromo-8-chloro-7-(2,6-difluorophenyl)-5H-pyrimido[1,2-a][1,4]benzodiazepin-3-one], for which the “Efficacy (GABA) %” value on h-GABA-A α2β2γ1 stood at 65%. The “Fold increase h-GABA-A α2β2γ1 oocyte @ 30-fold Ki” value on h-GABA-A α2β2γ1 is recorded as 1.65. For the same compound, the Ki in assay [1] is 0.7 nM; in assay [3], 4.6 nM; in assay [3] (setting [5]) it was 4.6 nM; in assay [4], 322 nM. In addition, in assay [3], the “γ2/γ1 Selectivity Ratio” value is 70.5. This compound came in with a LogSel in assay [3] of 1.85.

For `O=c1nc2n(cc1Br)-c1ccc(Cl)c(Cl)c1C(c1c(F)cccc1F)=NC2` [Example 5, 2-bromo-8,9-dichloro-7-(2,6-difluorophenyl)-5H-pyrimido[1,2-a][1,4]benzodiazepin-3-one], on h-GABA-A α2β2γ1, the “Efficacy (GABA) %” value came to 78% and the “Fold increase h-GABA-A α2β2γ1 oocyte @ 30-fold Ki” value is 1.78. The same compound showed a Ki in assay [1] of 1.4 nM. Moreover, in assay [3], the Ki stood at 10.6 nM, the “γ2/γ1 Selectivity Ratio” value stood at 190.6 and the LogSel is 2.28. Further, the Ki in assay [3] (setting [5]) was determined as 10.6 nM. This compound also had a Ki in assay [4] of 2020 nM.

On to `Cc1ccc2c(c1Cl)C(c1c(F)cccc1F)=N[C@@H](C)c1nc(=O)c(C)cn1-2` [Example 8, (5S)-8-chloro-7-(2,6-difluorophenyl)-2,5,9-trimethyl-5H-pyrimido[1,2-a][1,4]benzodiazepin-3-one], for which, on h-GABA-A α2β2γ1, the “Efficacy (GABA) %” value was 115% and the “Fold increase h-GABA-A α2β2γ1 oocyte @ 30-fold Ki” value is 2.15. Moreover, in assay [1], affinity was put at a Ki of 2 nM. Also, in assay [3], the Ki was 37.7 nM, the “γ2/γ1 Selectivity Ratio” value turned out to be 32.7 and the LogSel was found to be 1.51. The Ki in assay [3] (setting [5]) worked out at 37.7 nM. Also, the Ki in assay [4] worked out at 1240 nM.
